# Measurements published in US9023878B2 (Neurophyxia B.V., priority 2010, dated 2015).
# Where “and” joins values, the source holds several entries; their conditions need not be identical. Equal values may be shown once. Marks after values point to notes of the source that are not given here.
# Key:
# [1] = Solubility/encapsulation in cyclodextrin solutions (excess 2-IB, three days, filtered, RP-HPLC)
# Protocol: An excess of 2-IB was added to the cyclodextrin solutions, mixed at room temperature for three days and then filtered to remove non-encapsulated) non-solubilised 2-IB.
# [2] = Solvent selection: stepwise solvent addition, solubility judged visually
# Protocol: Solubility of 2-IB was determined in the following solvents: • 0.9% Sodium chloride in water • 5% Dextrose in water • N,N-dimethylacetamide • N,N-dimethylformamide • Dimethyl sulfoxide • Ethanol • Propolyene glycol • Polyethyleneglycol 400 • Corn oil
# Approximately 10 mg of 2-IB was weighed into a 10 ml tube. Subsequently, small aliquots (100 μl-100 μl-200 μl-400 μl-800 μl-1600 μl-3200 μl) of the respective solvents were added stepwise. After each addition, the solution was mixed intensively and visually judged for solubility.
# Therefore the experiment was repeated for propylene glycol but with addition of 100 μl 1N hydrochloric acid after 200 μl propylene glycol (i.e. 10 mg 2-IB+200 μl propylene glycol+100 μl 1N hydrochloric acid).
# When an acidified 2-IB formulation in 5% dextrose is prepared, the pH after acidification is approximately 2 for nominal 2-IB concentrations in the range 1-5 mg/ml.
# [3] = Solubility of 2-IB (5 mg/ml) using different acids; assay type: physicochemical
# [4] = Formulation preparation: dissolution and titration to higher pH; assay type: physicochemical; details: 1.5 mg/g of 2-IB at pH 7.0, overnight stirring
# Description: This might be due to the different approaches for the solubility testing and the formulation preparation. […] The six formulations were all transparent and colorless solutions.
# It is not feasible to increase the solubility by preparing a formulation at a low pH first and then titrate to a high pH.
# [5] = Surfactants: stepwise solubility in surfactant solutions in 5% dextrose; assay type: physicochemical; details: nominal 1.6 mg/ml, without addition of acid
# Protocol: Stock solutions of the surfactant were prepared in 5% dextrose.
# [6] = Solubility of 2-IB in 10% SBE-CD at different pH adjusted with 0.1 M citric acid (HPLC); assay type: physicochemical
# [7] = Solubility of 2-IB in water at different pH; assay type: physicochemical
# piglets = details: versus allopurinol or deferoxamine; cited from earlier work
# [8] = Solubility of 2-IB in 10% SBE-CD at different pH adjusted with 0.1 M citric acid (HPLC); assay type: physicochemical; remark: listed apart in the source
# Protocol: The experimental steps are shown as below.
# 1. Weigh 0.5 g of SBE-CD into 10 ml glass vial
# 2. Add 3 ml WFI into each vial to dissolve SBE-CD
# 4. Magnetic stirring for 1 h
# 5. Adjust pH to target pH with 0.1 M citric acid
# 6. Determine the weight of 0.1 M citric acid added
# 7. Add WFI to total weight of 5 g
# 8. Measure pH again after 1 hour stirring
# 9. Filtrate through the formulation through PVDF 0.22 um filter
# [9] = Description: Necropsy took place approximately one hour after the second injection. Blood and brain samples were collected for both the mother and fetuses.
# [10] = 960 mg/kg/24 h 2-IB in 5% Solutol, continuous iv infusion
# [11] = average of 4 litters, maternal dose 55 mg/kg sc, 55 mg/kg
# [12] = average of 4 maternal rats, 55 mg/kg sc, 55 mg/kg
# [13] = pooled female fetuses per maternal rat, maternal dose 55 mg/kg sc, 55 mg/kg
# [14] = pooled male fetuses per maternal rat, maternal dose 55 mg/kg sc, 55 mg/kg
# Protocol for Wistar rats: Group I: Vehicle 20% Solutol (Continuous Intravenous Infusion)
# Animals received a continuous infusion of vehicle only (20% Solutol in 5% dextrose) at a dose volume of 4 mL/kg/h for 24 hours.
# Group II: Vehicle 5% Solutol (Continuous Intravenous Infusion)
# Animals received a continuous infusion of vehicle only (5% Solutol in 5% dextrose) at a dose volume of 4 mL/kg/h for approximately 96 hours.
# Group III: 960 mg/kg/24 h of 2-IBin 5% Solutol (Continuous Intravenous Infusion).
smiles,measurement,setting,value
"N=C1N[C@H]2[C@H](CS[C@H]2CCCCC(=O)O)N1 [Formulation 2-IB, 2-iminobiotin]",concentration of 2-IB,"[1]; 10% SBE-CD, WFI, final pH 6.5",1500 µg/mL
same,concentration of 2-IB,"[1]; 20% HP-CD, Citrate pH 4.0, final pH 4.7",5100 µg/mL
same,concentration of 2-IB,"[1]; 20% HP-CD, Citrate pH 5.0, final pH 5.3",2100 µg/mL
same,concentration of 2-IB,"[1]; 20% HP-CD, WFI, final pH 6.6",900 µg/mL
same,concentration of 2-IB,"[1]; 20% SBE-CD, Citrate pH 4.0, final pH 4.9",11400 µg/mL
same,concentration of 2-IB,"[1]; 20% SBE-CD, Citrate pH 5.0, final pH 5.3",7000 µg/mL
same,concentration of 2-IB,"[1]; 20% SBE-CD, WFI, final pH 6.7",2400 µg/mL
same,concentration of 2-IB,"[1]; 40% HP-CD, Citrate pH 4.0, final pH 5.0",5600 µg/mL
same,concentration of 2-IB,"[1]; 40% HP-CD, Citrate pH 5.0, final pH 5.6",2600 µg/mL
same,concentration of 2-IB,"[1]; 40% HP-CD, WFI, final pH 6.7",1200 µg/mL
same,concentration of fully dissolved and stable solution,[2]; 10 mg 2-IB+200 μl propylene glycol+100 μl 1N hydrochloric acid,33000 µg/mL
same,"solubility, visually judged","[2]; 10 mg in 6400 μl (1.6 mg/ml) of 0.9% NaCl, 5% dextrose, DMA, DMF, DMSO, ethanol, propylene glycol, PEG 400 or corn oil",not sufficiently soluble in any of these solvents
same,effect of addition of water,[2]; 33 mg/ml propylene glycol/hydrochloric acid formulation,immediately resulted in precipitation of 2-IB
same,"precipitation, visual observation",[2]; acidified 2-IB in 5% dextrose neutralized to pH 7,nearly all 2-IB has precipitated out of solution
same,pH up to which partial neutralization is possible before precipitation,"[2]; acidified 2-IB in 5% dextrose, nominal 1-5 mg/ml, 0.1% sodium hydroxide",3-3.5
same,"solubility, visually judged",[2]; same solvents after addition of 100 μl of 1N hydrochloric acid,fully dissolved in all solvents
same,pH at which solubility was achieved,[3]; HCl,3.0
same,pH at which solubility was achieved,[3]; weak acids (acetic acid and citric acid),3.3
same,dissolution on formulation preparation,[4],did not dissolve completely after overnight stirring
same,"solubility, visually judged",[5],did not dissolve in any of the surfactant solutions
same,solubility with pH-adjustment alone,"[6]; pH 4.0, without SBE-CD",1.72 mg/g
same,solubility with pH-adjustment alone,"[6]; pH 5.0, without SBE-CD",0.59 mg/g
same,solubility in water,[7]; pH 3.5,around 4.5 mg/ml
same,solubility in water,[7]; pH 5,around 0.59 mg/ml
same,solubility in water,[7]; pH 7.4,around 0.34 mg/ml
same,effectiveness in preventing and/or treating effects of perinatal asphyxia,piglets,more effective
same,bilirubin levels,Wistar rats; [10],within the normal range
same,body weights,Wistar rats; [10],increased for two animals
same,clinical chemistry at the end of treatment,Wistar rats; [10],"slight to moderate increase in aspartate aminotransferase (1/2), alkaline phosphatase (1/2), and glucose (2/2)"
same,creatinine and urine at the end of treatment,Wistar rats; [10],high values for creatinine and urine (1/2)
same,macroscopic findings at necropsy,Wistar rats; [10],"oedema (2/3), pelvic dilation of the kidneys (2/3), enlarged liver (1/3), enlarged iliac lymph node (113), dark spots on the lungs (1/3), and fibrin-like coating in or around the femoral vein"
same,clinical signs,"Wistar rats; 960 mg/kg/24 h 2-IB in 5% Solutol, continuous iv infusion, Days 2-3","hunched posture, piloerection and pallor"
same,mortality,"Wistar rats; 960 mg/kg/24 h 2-IB in 5% Solutol/5% dextrose, continuous iv infusion 4 mL/kg/h, terminated after 46 hours",One animal died after 46 hours of infusion
same,Solubility of 2-IB,[8]; pH 4.0,13.08 mg/g
same,Solubility of 2-IB,[8]; pH 4.5,9.00 mg/g
same,Solubility of 2-IB,[8]; pH 5.0,5.2 mg/g and 5.21 mg/g
same,Solubility of 2-IB,[8]; pH 5.1,5.30 mg/g
same,Solubility of 2-IB,[8]; pH 5.5,3.29 mg/g
same,Solubility of 2-IB,[8]; pH 6.2,1.94 mg/g
same,Solubility of 2-IB,[8]; pH 7.0,1.71 mg/g
same,mortality of maternal animals,"[9]; 55 mg/kg sc, Day 20 post-coitum",No mortality occurred
same,"2-IB concentration in brain, female fetuses, average (±SD)",[9]; [11],369 ng/g and 369 (±72) ng/g
same,"2-IB concentration in brain, male fetuses, average (±SD)",[9]; [11],329 ng/g and 329 (±72) ng/g
same,"2-IB plasma concentration, female fetuses, average (±SD)",[9]; [11],"1,903 ng/mL and 1,903 (±437) ng/mL"
same,"2-IB plasma concentration, male fetuses, average (±SD)",[9]; [11],"1,765 ng/mL and 1,765 (±259) ng/mL"
same,"2-IB concentration in brain, maternal, average (±SD)",[9]; [12],268 ng/g and 268 (±92) ng/g
same,"2-IB plasma concentration, maternal, average (±SD)",[9]; [12],"10,039 ng/mL and 10,039 (±3371) ng/mL"
same,"2-IB concentration in brain sample, maternal","[9]; individual maternal Wistar rats, 55 mg/kg sc, 55 mg/kg",151 ng/g and 375 ng/g and 270 ng/g and 276 ng/g
same,"2-IB plasma concentration, maternal","[9]; individual maternal Wistar rats, Day 20 post-coitum, 2 sc injections of 27.5 mg/kg, approximately one hour after second injection, 27.5 mg/kg","7,104 ng/mL and 14,185 ng/mL and 7,490 ng/mL and 11,378 ng/mL"
same,"2-IB concentration in brain sample, pooled fetuses (females)",[9]; [13],474 (n = 3) ng/g and 317 (n = 8) ng/g and 329 (n = 4) ng/g and 356 (n = 7) ng/g
same,"2-IB plasma concentration, pooled fetuses (females)",[9]; [13],"2,442* (n = 3) ng/mL and 2,063 (n = 8) ng/mL and 1,474 (n = 4) ng/mL and 1,634 (n = 7) ng/mL"
same,"2-IB concentration in brain sample, pooled fetuses (males)",[9]; [14],287 (n = 8) ng/g and 435 (n = 4) ng/g and 283 (n = 5) ng/g and 309 (n = 8) ng/g
same,"2-IB plasma concentration, pooled fetuses (males)",[9]; [14],"1,868 (n = 8) ng/mL and 2,080 (n = 4) ng/mL and 1,598 (n = 5) ng/mL and 1,512 (n = 8) ng/mL"
same,transfer over the placenta and the blood-brain barrier,"[9]; two sc injections, total dose level 55 mg/kg",confirmed
